Where a SMILES comes first, the peptide text is derived from it. Where no end group is shown, it is not given here. [ ]: non-standard residue; d: D form. dTrp(2-Me) = Cc1[nH]c2ccccc2c1C[C@@H](N)C(=O)O
Test system: papillary muscle of guinea-pig
Assay: Myocardial contractility (developed tension) in isolated, electrically driven papillary muscle of guinea-pig
Conditions: for change in developed tension: isolated guinea-pig papillary muscle, 1 Hz; for tension development (positive inotropic action) vs baseline: cumulative 10, 30 and 100 μM, n=5, FIG. 1
Experimental: [Test Example 1] Myocardial Contractility Enhancing Action of Pralmorelin in the Papillary Muscle of Guinea-Pig
The direct effect of pralmorelin on myocardial contractility was evaluated using the isolated cardiac muscle of guinea-pigs according to the standard method for evaluating myocardial contractility. • 1. Materials and Experimental Method • 1) Animal Used
Male Hartley guinea-pigs (body weight, 301-350 g; Japan SLC) were purchased. The animals were accommodated to an environment at a temperature of 23±2° C. and a humidity of 55±15% under 12-hr light/dark cycles while they were allowed to eat and drink water ad libitum until they weighed 360-480 g. Each test substance was tested on a group of five animals. • 2) Reagents Used
The test substances were pralmorelin dihydrochloride (KP-102), representatives of growth hormone secretagogues such as hexarelin, ghrelin and ibutamorelin methanesulfonate (the last being hereunder referred to as MK-0677) (which were prepared by the method described in JP 6-263737 A (kokai)), as well as a recombinant human growth hormone (Sumitomo Pharmaceutical) and amrinone (Sigma) which is a known therapeutic of acute heart failure. KP-102, hexarelin and MK-0677 were dissolved in distilled water. Ghrelin was dissolved in physiological saline. Amrinone was first dissolved in dimethyl sulfoxide and then diluted with physiological saline. The growth hormone was dissolved in a dedicated solubilizer (0.3 w/v % metacresol and 3.9 w/v % D-mannitol). None of the test substance solutions should be added in an amount exceeding 1 w/v %. All reagents other than the test substances were guaranteed products of Nacalai Tesque. • 3) Preparing Specimens of the Isolated Papillary Muscle
The guinea-pigs were stunned with a blow to the back of their head; thereafter, the carotid artery was incised and the animals were exsanguinated to death. The chest was opened, the blood vessels in the upper part of the heart were cut and the heart was removed. The heart was immediately transferred into a Krebs-Henseleit (K-H) nutrient solution (NaCl, 118.0 mM; KCl, 4.7 mM; CaCl2. 2H2O, 1.0 mM; KH2PO4, 1.2 mM; MgSO4.7H2O, 1.2 mM; NaHCO3, 25.0 mM; glucose, 11.0 mM) that had been fully aerated with 95% O2-5% CO2. The heart was fixed on a rubber-lined Petri dish with needles such that its front face was seen. The ventricular wall of the upper right ventricle (toward the atrium) was excised transversely along the atrium, then excised longitudinally along the interventricular septum so that the ventricular wall was opened to expose the right ventricular papillary muscle. Subsequently, the entire surface of the left ventricle was cut open from the aorta (down) to the apex and the anterior wall of the left ventricle was opened wide, to both right and left, and fixed to expose the papillary muscle of the left ventricle. The tricupsid or mitral valve was cut off from the ventricle and the papillary muscle was cut off at the base to prepare a specimen of papillary muscle. The base of the specimen was fixed to field stimulating electrodes in an organ bath filled with 15 mL of the nutrient solution. The tendinous cord adhering to the valve was tied up with a thread and connected to an FD pickup (TB-612T, Nihon Kohden). A resting tension of 0.5 g was loaded and the papillary muscle was driven with an electric stimulator (SEN-3201, Nihon Kohden) at a frequency of 1 Hz by pulses of 20-ms duration and at a voltage intensity about 1.2 times the threshold. After an equilibration period of about 1 hr, KP-102, hexarelin and amrinone were each applied cumulatively up to amounts of 10, 30 and 100 μM. After examination of the changes in inotropic action due to the application of the test substances, 12.5 mM of CaCl2 was added and the maximum tension that was developed by each specimen was obtained. […]

CC(C)(N)C(=O)N[C@H](COCc1ccccc1)C(=O)N1CCC2(CC1)CN(S(C)(=O)=O)c1ccccc12 [MK-0677, ibutamorelin methanesulfonate]
change in developed tension (100 μM): no changes in the developed tension

Nc1cc(-c2ccncc2)c[nH]c1=O [amrinone]
tension development (positive inotropic action) vs baseline: increased in a concentration-dependent manner

Cc1[nH]c2ccccc2c1C[C@@H](NC(=O)[C@@H](N)Cc1cnc[nH]1)C(=O)N[C@@H](C)C(=O)N[C@@H](Cc1c[nH]c2ccccc12)C(=O)N[C@H](Cc1ccccc1)C(=O)N[C@@H](CCCCN)C(N)=O [hexarelin] (H-H[dTrp(2-Me)]AW[dF]K-NH2)
tension development (positive inotropic action) vs baseline: very weak and by no means significant over the baseline value

ghrelin (GSSFLSPEHQRVQQRKESKKPPAKLQPR; ends and bridges not checked; UniProt Q9UBU3 24-51, looked up) [representative growth hormone secretagogue]
change in developed tension (1 μM): no changes in the developed tension

recombinant human growth hormone: recombinant human growth hormone (Sumitomo Pharmaceutical)
change in developed tension (0.2 IU/mL): no changes in the developed tension

— patent publication US6878689B2, “Preventives or remedies for heart failure” (Kaken Pharmaceutical Co., Ltd., priority 2000, dated 2005)
